Results as given in ChEMBL document CHEMBL5108055, “Dual A1/A3 Adenosine Receptor Antagonists: Binding Kinetics and Structure-Activity Relationship Studies Using Mutagenesis and Alchemical Binding Free Energy Calculations” (J Med Chem, 2022).

Assays:
[1] = target: T1, Adenosine receptor A3 (Homo sapiens) (UniProt P0DMS8); assay: Binding affinity to human adenosine A3R expressed in CHO cells membrane assessed as binding constant (kon); type: cell membranes; conditions: filed as antagonist
T1 sequence (whole entry): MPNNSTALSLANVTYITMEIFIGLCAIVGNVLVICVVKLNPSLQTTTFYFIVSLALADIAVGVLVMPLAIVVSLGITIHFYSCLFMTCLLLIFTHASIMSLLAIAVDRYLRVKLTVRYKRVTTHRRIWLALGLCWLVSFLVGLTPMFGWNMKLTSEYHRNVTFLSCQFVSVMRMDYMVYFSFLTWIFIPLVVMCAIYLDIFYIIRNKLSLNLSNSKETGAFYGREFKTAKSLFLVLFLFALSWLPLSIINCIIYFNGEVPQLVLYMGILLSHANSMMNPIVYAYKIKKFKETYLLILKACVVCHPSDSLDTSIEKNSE

Adenosine receptor A3 [2] = target: T2, Adenosine receptor A3 (Homo sapiens, UniProt P0DMS8); assay: Binding affinity to human adenosine A3R expressed in CHO cells membrane; type: cell membranes
T2 sequence (P0DMS8 whole entry): T1 sequence (whole entry)

[3] = target: T1, Adenosine receptor A3 (Homo sapiens); assay: Binding affinity to human adenosine A3R expressed in CHO cells membrane assessed as residence time; type: cell membranes; conditions: filed as antagonist
[4] = target: T1, Adenosine receptor A3 (Homo sapiens); assay: Binding affinity to human adenosine A3R expressed in CHO cells membrane assessed as dissociation constant (koff); type: cell membranes; conditions: filed as antagonist
Adenosine receptor A3 [5] = target: T2, Adenosine receptor A3; assay: Binding affinity to wild type A3R (unknown origin) expressed in Flp-In-CHO cells assessed as dissociation constant by Schild analysis; type: cell-based
Adenosine receptor A1 [6] = target: T3, Adenosine receptor A1 (Homo sapiens, UniProt P30542); assay: Binding affinity to wild type A1R (unknown origin) expressed in CHO-K1 cells assessed as equilibrium binding affinity constant by nanoBRET assay; type: cell-based
T3 sequence (P30542 whole entry): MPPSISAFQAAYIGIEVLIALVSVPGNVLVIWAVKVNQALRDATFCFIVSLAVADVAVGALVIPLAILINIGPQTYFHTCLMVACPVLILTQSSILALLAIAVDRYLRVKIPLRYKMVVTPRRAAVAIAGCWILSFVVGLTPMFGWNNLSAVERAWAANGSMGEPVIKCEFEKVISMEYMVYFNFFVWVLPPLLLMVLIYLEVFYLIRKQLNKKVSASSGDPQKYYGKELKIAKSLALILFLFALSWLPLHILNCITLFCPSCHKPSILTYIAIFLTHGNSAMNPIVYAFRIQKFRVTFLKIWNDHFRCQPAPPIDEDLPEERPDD

Adenosine receptor A1 [7] = target: T3, Adenosine receptor A1; assay: Antagonist activity at wild type A1R (unknown origin) expressed in CHO-K1 cells assessed as inhibition of NECA reduced forskolin stimulated cAMP accumulation incubated for 30 mins; type: functional, cell-based
Adenosine receptor A3 [8] = target: T2, Adenosine receptor A3; assay: Antagonist activity at wild type A3R (unknown origin) expressed in Flp-In-CHO cells assessed as inhibition of NECA reduced forskolin stimulated cAMP accumulation incubated for 30 mins; type: functional, cell-based
Adenosine receptor A1 [9] = target: T3, Adenosine receptor A1; assay: Binding affinity to Nluc-A1R (unknown origin) expressed in HEK293 cells by nanoBRET assay; type: cell-based
Adenosine receptor A3 [10] = target: T2, Adenosine receptor A3; assay: Binding affinity to Nluc-A3R (unknown origin) expressed in HEK293 cells by nanoBRET assay; type: cell-based
Adenosine receptor A3 [11] = target: T2, Adenosine receptor A3; assay: Binding affinity to wild type A3R (unknown origin) expressed in CHO-K1 cells assessed as equilibrium binding affinity constant by nanoBRET assay; type: cell-based, Flp-In-CHO
[12] = target: T1, Adenosine receptor A3 (Homo sapiens); assay: Binding affinity to N-terminal Nano-luc tagged human adenosine A3R expressed in HEK293 cells membrane assessed as dissociation constant (koff); type: cell membranes; conditions: filed as antagonist
[13] = target: T1, Adenosine receptor A3 (Homo sapiens); assay: Binding affinity to N-terminal Nano-luc tagged human adenosine A3R expressed in HEK293 cells membrane assessed as association constant (kon); type: cell membranes; conditions: filed as antagonist
[14] = target: T1, Adenosine receptor A3 (Homo sapiens); assay: Binding affinity to N-terminal Nano-luc tagged human adenosine A3R expressed in HEK293 cells membrane assessed as residence time; type: cell membranes; conditions: filed as antagonist
Adenosine receptor A3 [15] = target: T2, Adenosine receptor A3; assay: Binding affinity to N-terminal Nano-luc tagged human adenosine A3R expressed in HEK293 cells membrane; type: cell membranes
[16] = Binding affinity to A1R Y271 7.36A mutant (unknown origin) by saturation NanoBRET binding assay; set-up: species or system Homo sapiens
[17] = target: T4, Adenosine receptor A1 (Homo sapiens) (UniProt P30542); assay: Displacement of [3H]-DPCPX from human adenosine A1R expressed in CHO cells membrane assessed as residence time; type: cell membranes; conditions: filed as antagonist
T4 sequence (whole entry): T3 sequence (P30542 whole entry)

[18] = target: T4, Adenosine receptor A1 (Homo sapiens); assay: Displacement of [3H]-DPCPX from human adenosine A1R expressed in CHO cells membrane assessed as dissociation constant (koff) preincubated for 1 hr followed by compound addition and measured after 1 hr; type: cell membranes; conditions: filed as antagonist
Adenosine receptor A1 [19] = target: T3, Adenosine receptor A1; assay: Displacement of [3H]-DPCPX from human adenosine A1R expressed in CHO cells membrane incubated for 1 hr; type: cell membranes
[20] = target: T4, Adenosine receptor A1 (Homo sapiens); assay: Displacement of [3H]-DPCPX from human adenosine A1R expressed in CHO cells membrane assessed as association constant (kon) incubated for 45 mins; type: cell membranes; conditions: filed as antagonist
Adenosine receptor A1 [21] = target: T3, Adenosine receptor A1; assay: Binding affinity to human adenosine A1R expressed in CHO cells membrane; type: cell membranes
Adenosine receptor A1 [22] = target: Adenosine receptor A1 (Homo sapiens, UniProt P30542, S267A); assay: Binding affinity to A1R S267 7.32A mutant (unknown origin) in by saturation NanoBRET binding assay
Adenosine receptor A1 (Homo sapiens, UniProt P30542, S267A), sequence (P30542 whole entry S267A): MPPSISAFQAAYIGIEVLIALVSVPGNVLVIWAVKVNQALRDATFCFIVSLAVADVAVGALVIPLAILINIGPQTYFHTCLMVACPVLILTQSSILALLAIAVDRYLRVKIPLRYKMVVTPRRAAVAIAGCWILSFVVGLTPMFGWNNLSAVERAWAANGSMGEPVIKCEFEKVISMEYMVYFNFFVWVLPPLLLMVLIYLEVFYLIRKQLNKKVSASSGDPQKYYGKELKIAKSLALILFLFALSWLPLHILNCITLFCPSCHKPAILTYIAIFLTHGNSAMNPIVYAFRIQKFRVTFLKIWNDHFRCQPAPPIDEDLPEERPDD

Adenosine receptor A1 [23] = target: Adenosine receptor A1 (Homo sapiens, UniProt P30542, E172A); assay: Binding affinity to A1R E172 5.30A mutant (unknown origin) by saturation NanoBRET binding assay
Adenosine receptor A1 (Homo sapiens, UniProt P30542, E172A), sequence (P30542 whole entry E172A): as the sequence (P30542 whole entry S267A) above, with E172A, A267S counted along it

Adenosine receptor A1 [24] = target: Adenosine receptor A1 (Homo sapiens, UniProt P30542, H251A); assay: Binding affinity to A1R H251 6.52A mutant (unknown origin) by saturation NanoBRET binding assay
Adenosine receptor A1 (Homo sapiens, UniProt P30542, H251A), sequence (P30542 whole entry H251A): as the sequence (P30542 whole entry S267A) above, with H251A, A267S counted along it

Adenosine receptor A1 [25] = target: Adenosine receptor A1 (Homo sapiens, UniProt P30542, L250A)
Adenosine receptor A1 (Homo sapiens, UniProt P30542, L250A), sequence (P30542 whole entry L250A): as the sequence (P30542 whole entry S267A) above, with L250A, A267S counted along it
Description: Binding affinity to A1R L250 6.51A mutant (unknown origin) by saturation NanoBRET binding assay

Adenosine receptor A1 [26] = target: T3, Adenosine receptor A1; assay: Binding affinity to wild type A1R (unknown origin) by saturation NanoBRET binding assay

Kd (Adenosine receptor A3 [5]) | Ki (Adenosine receptor A1 [6]) | IC50 (Adenosine receptor A1 [7]) | IC50 (Adenosine receptor A3 [8]) | Kd (Adenosine receptor A1 [9]) | Kd (Adenosine receptor A3 [10]) | Ki (Adenosine receptor A3 [11]) | Structure (SMILES) | also measured
– | – | – | – | – | – | – | CC[C@@H]1CN2C(=O)N(C)C3N=C(c4ccccc4)NC3C2=N1 (some centres undefined) | K [1]: 2.35 10^8/M/min; Kd (Adenosine receptor A3 [2]): 0.46 nM; TIME [3]: 0.08 h; K [4]: 0.208 min⁻¹
257 nM | 22.9 nM | 22.9 nM | 4.9 nM | 40.7 nM | 257 nM | 132 nM | COc1cc(Nc2nc(CN)cc3c(-c4ccccc4)n[nH]c23)cc(OC)c1OC | –
158 nM | 204 nM | 3.89 nM | 7.24 nM | 427 nM | 186 nM | 85.1 nM | COc1cc(Nc2nc(CNCc3ccccc3)cc3c(-c4ccccc4)n[nH]c23)cc(OC)c1OC | –
– | – | – | – | – | – | – | COc1cccc(Cn2c(=O)n(CC3CC3)c(=O)c3c2nc2cc(OC)ccn23)c1 | K [12]: 0.0065 min⁻¹; K [13]: 8.17 10^6/M/min; TIME [14]: 2.8 h; Kd (Adenosine receptor A3 [15]): 9.11 nM
– | – | – | – | – | – | – | CCNC(=O)[C@H]1O[C@@H](n2cnc3c(N)ncnc32)[C@H](O)[C@@H]1O [NECA] | pKd [16]: 5.45
– | 229 nM | 10.2 nM | – | 102 nM | – | – | COc1cc(Nc2nc(C#N)cc3cn[nH]c23)cc(OC)c1OC | –
– | – | – | – | – | – | – | N#Cc1c(N)nc(SCc2ncc[nH]2)c(C#N)c1-c1ccc(O)cc1 | TIME [17]: 0.0183 h; K [18]: 0.92 min⁻¹; Kd (Adenosine receptor A1 [19]): 4.6 nM; K [20]: 2 10^8/M/min
355 nM | – | – | 3.8 nM | – | – | 603 nM | COc1cc(Nc2nc(C#N)cc3c(C(C)C)n[nH]c23)cc(OC)c1OC | –
– | – | – | – | – | – | – | CCCn1c(=O)[nH]c(=O)c2[nH]c(C3CCCC3)nc21 | Kd (Adenosine receptor A1 [21]): 1.5 nM
550 nM | 288 nM | 5.01 nM | 2.82 nM | 282 nM | – | 631 nM | COc1cc(Nc2nc(Cl)cc3c(C(C)C)n[nH]c23)cc(OC)c1OC | –
17 nM | 214 nM | 13.5 nM | 60.3 nM | 61.7 nM | 26.3 nM | 43.7 nM | N#Cc1cc2c(-c3ccccc3)n[nH]c2c(Nc2ccccc2)n1 | –
170 nM | > 955 nM | 5.01 nM | 6.76 nM | 851 nM | – | 234 nM | Cn1nc(NC(=O)c2ccccc2)c2cc(Nc3ccccc3)ncc21 | –
– | – | – | – | – | – | – | CCCn1c(=O)c2[nH]c(-c3ccc(OCC(=O)NCCNC(=O)CCNC(=O)CCCCNC(=O)CCCCCNC(=O)COc4ccc(/C=C/C5=[N+]6C(=Cc7ccc(-c8cccs8)n7[B-]6(F)F)C=C5)cc4)cc3)nc2n(CCC)c1=O | Kd (Adenosine receptor A1 [22]; read-out: Kd): 71 nM; Kd (Adenosine receptor A1 [23]; read-out: Kd): 116 nM; Kd (Adenosine receptor A1 [24]; read-out: Kd): 145 nM; Kd (Adenosine receptor A1 [25]): 158 nM; Kd [16]: 71.1 nM
251 nM | – | – | 5.13 nM | – | 74.1 nM | 100 nM | COc1cc(Nc2nccc3c(-c4ccccc4)n[nH]c23)cc(OC)c1OC | –
302 nM | 1000 nM | 1.41 nM | 4.27 nM | – | – | 64.6 nM | Cn1nc(NC(=O)Nc2ccccc2)c2ccnc(NC3CCCCC3)c21 | –
89.1 nM | – | – | 12.3 nM | – | 85.1 nM | 55 nM | COc1cc(Nc2nc(Cl)cc3c(-c4ccccc4)n[nH]c23)cc(OC)c1OC | –
– | 4.37 nM | 200 nM | – | 1.74 nM | – | – | COc1cc(Nc2nc(C#N)cc3c(-c4ccccc4)n[nH]c23)cc(OC)c1OC | Kd (Adenosine receptor A1 [22]; read-out: pKd (converted)): 7.94 nM; Kd (Adenosine receptor A1 [26]): 13.5 nM; Kd (Adenosine receptor A1 [23]; read-out: pKd (converted)): 23.4 nM; Kd (Adenosine receptor A1 [24]; read-out: pKd (converted)): 9.33 nM; Kd (Adenosine receptor A1 [25]): 3.63 nM
– | 295 nM | 2.63 nM | – | 398 nM | – | – | Cn1nc(NC(=O)CNc2ccccc2)c2cc(Nc3ccccc3)ncc21 | –
490 nM | 363 nM | 6.92 nM | 3.02 nM | 282 nM | 355 nM | 0.115 nM | O=C(CNc1ccccc1)Nc1n[nH]c2cnc(Nc3ccccc3)cc12 | –
